US9440972B2, “Pyrido[2,3-d]pyrimidine-2,4(1 H,3H)-dione derivatives” (Hydra Biosciences, Inc., priority 2014, dated 2016)

Biological target: T1, TRPC5 channel (Homo sapiens, UniProt Q9UL62)
T1 construct: expressed in transfected cells; host or cells: HEK293/TREx (Invitrogen), tetracycline-induced
T1 sequence (Q9UL62 1-973): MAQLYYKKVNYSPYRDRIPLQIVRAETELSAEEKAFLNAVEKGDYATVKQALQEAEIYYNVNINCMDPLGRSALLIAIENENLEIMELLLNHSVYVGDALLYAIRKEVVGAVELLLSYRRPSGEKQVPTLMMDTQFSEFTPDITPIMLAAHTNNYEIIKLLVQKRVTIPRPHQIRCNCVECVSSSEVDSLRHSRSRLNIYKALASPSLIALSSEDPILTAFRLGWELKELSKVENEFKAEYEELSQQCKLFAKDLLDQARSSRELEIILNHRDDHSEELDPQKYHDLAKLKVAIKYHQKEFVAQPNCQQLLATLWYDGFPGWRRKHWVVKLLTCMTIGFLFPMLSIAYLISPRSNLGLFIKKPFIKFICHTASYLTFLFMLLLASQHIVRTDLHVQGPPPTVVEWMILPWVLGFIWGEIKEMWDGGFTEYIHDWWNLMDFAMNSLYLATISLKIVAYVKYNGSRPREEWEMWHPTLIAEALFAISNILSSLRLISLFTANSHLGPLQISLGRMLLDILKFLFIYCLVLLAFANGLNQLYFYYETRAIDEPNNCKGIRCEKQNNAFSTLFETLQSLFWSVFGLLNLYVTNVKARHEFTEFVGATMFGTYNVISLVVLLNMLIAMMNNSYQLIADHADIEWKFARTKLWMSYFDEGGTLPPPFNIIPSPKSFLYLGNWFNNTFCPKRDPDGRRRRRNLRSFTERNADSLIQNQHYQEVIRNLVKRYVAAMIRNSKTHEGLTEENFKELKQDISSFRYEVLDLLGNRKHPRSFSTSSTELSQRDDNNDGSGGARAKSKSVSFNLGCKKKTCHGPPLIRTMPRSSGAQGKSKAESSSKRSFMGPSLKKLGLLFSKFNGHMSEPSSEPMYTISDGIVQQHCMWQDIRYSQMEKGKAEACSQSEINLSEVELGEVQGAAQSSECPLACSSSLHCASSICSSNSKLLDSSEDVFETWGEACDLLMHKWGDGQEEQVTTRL
Assay: High throughput screening assay: Fluo4 cell-based fluorescence assay of intracellular Ca2+ rise
Settings: HEK293/TREx cells inducibly expressing TRPC5, 0.027-20 μM in triplicate, NF = no IC50 curve could be fit
Text: The assay depended on detection of the rise in intracellular Ca2+ concentration ([Ca2+]i) following channel activation in cells inducibly expressing the TRPC5 channel. Ca2+ rise was quantified with the use of fluorescent Ca2+ indicators that were loaded into cells and thereafter indicated the [Ca2+]i Ca2+ influx followed activation of the TRPC5 channel. Compounds inhibiting the [Ca2+]i rise were considered hits for further investigation.
The commercially available HEK293/TREx line (Invitrogen) was stably transfected with a TRPC5 construct and screened by conventional calcium imaging to find clones with TRPC5 expression following stimulation with 1 μg/ml tetracycline. These cells were maintained in the growth medium recommended by the manufacturer supplemented with 100 μg/ml hygromycin to promote retention of the TRPC5 construct. After growing to near confluency, cells were plated at a density of ˜35,000 cells/well in 384 well CellBind plates (Corning) in the presence of 1 μg/ml tetracycline, and allowed to grow for 20-30 hrs. A nearly confluent monolayer resulted. Cells were then loaded with Ca2+ dye: Fura-2/AM or Fluo4/AM was added to the wells to a final concentration of 4 μM or 0.5 μM, respectively, and incubated for 80 min or 60 min, respectively, at room temperature. Supernatant was then removed from the cells by inverting plates with a sharp flick, and 25 μl Hank's Balanced Salt Solution (HBSS; 0.185 g/l D-glucose, 0.9767 g/l MgS04 (anhydrous), 0.4 g/l KCl, 0.06 g/l KH2PO4 (anhydrous), 0.35 g/l NaHCO3, 8.0 g/l NaCl, and 0.04788 g/l Na2HPO4 (anhydrous); pH 7.4) was then added to each well. Following ˜0.5 hour for recovery from loading, cells were assayed using the Hamamatsu FDSS 6000 system, which permitted illumination alternately at 340 nm and 380 nm for Fura-2 experiments, or at 485 nm for Fluo4 experiments. Frames were acquired at a rate of 0.2 Hz. During the assay, the plates were continuously vortexed, with pipette mixing of wells following addition of each reagent. For the screening assay, 26 μl of a diluted compound stock (at 50 μM) was added to each well for 2 minutes following the collection of a short (4 frame) baseline. 13 μl 62 mM high-Ca2+Ringer solution (4.17 ml of normal ringer (with 2 mM Ca2+) plus 5.83 ml of isotonic calcium ringer (105 mM Ca2+; in this ringer all sodium has been replaced with calcium)) was then added to each well, achieving a final concentration of 14 mM Ca2+ and 10 μM test compound. Data was collected for ˜3 minutes following addition of high Ca2+Ringer, where the fluorescent intensity (for Fluo4) and the F340/F380 ratio (for Fura-2) were proportional to the [Ca2+]i Negative controls consisted of HEK293/TREx TRPC5 cells exposed to high Ca2+ solution, but no compound. Positive control conditions consisted of addition of 2-APB, a promiscuous blocker of TRPC5 and other channels, to columns 23 and 24 of the plates, to a final concentration of 200 μM. These controls defined a screening window, and “hits” were defined as those compounds inhibiting the fluorescence response by at least 40%. IC50 values were determined for compounds defined as “hits.” The Fluo4 cell-based fluorescence assay was used to determine the intracellular Ca2+ concentration in the presence of varying drug concentration. Final concentrations of compounds tested were 20 μM, 6.667 μM, 2.222 μM, 0.741 μM, 0.247 μM, 0.082 μM, and 0.027 μM. Compounds were tested in triplicate at all concentrations. Standard software was used to fit IC50 curves. A value of NF was assigned when no IC50 curves could not be fit.
Additionally or alternatively, efficacy can be represented as % inhibition in the presence (of a given concentration of compound) versus the absence of compound or in comparison to a control compound. For example, efficacy can be represented as % inhibition of ion flux in the presence versus the absence of compound.

IC50	Compound
0.0285 µM	CC(C)c1cccc(Oc2cnc3c(c2Cc2ccccc2)c(=O)n(CCCO)c(=O)n3C)c1 [Compound 28, 5-benzyl-3-(3-hydroxypropyl)-6-(3-isopropylphenoxy)-1-methylpyrido[2,3-d]pyrimidine-2,4(1H,3H)-dione]
> 10 µM	CC(C)CCc1c(Oc2cccc(Cl)c2)cnc2c1c(=O)n(CCCO)c(=O)n2C [Compound 48, 6-(3-chlorophenoxy)-3-(3-hydroxypropyl)-5-isopentyl-1-methylpyrido[2,3-d]pyrimidine-2,4(1H,3H)-dione]
1.42 µM	Cn1c(=O)n(CCCO)c(=O)c2c(Cc3ccc(C(F)(F)F)nc3)c(Oc3cccc(Cl)c3)cnc21 [Compound 43, 6-(3-chlorophenoxy)-3-(3-hydroxypropyl)-1-methyl-5-((6-(trifluoromethyl)pyridin-3-yl)methyl)pyrido[2,3-d]pyrimidine-2,4(1H,3H)-dione]
0.0338 µM	CC(C)c1ccccc1Oc1cnc2c(c1Cc1ccc(F)cc1)c(=O)n(CCCO)c(=O)n2C [Compound 41, 5-(4-fluorobenzyl)-3-(3-hydroxypropyl)-6-(2-isopropylphenoxy)-1-methylpyrido[2,3-d]pyrimidine-2,4(1H,3H)-dione]
0.18 µM	Cn1c(=O)n(CCCO)c(=O)c2c(Cc3ccc(C(F)(F)F)cc3)c(Oc3cccc(C(F)(F)F)c3)cnc21 [Compound 22, 3-(3-hydroxypropyl)-1-methyl-5-(4-(trifluoromethyl)benzyl)-6-(3-(trifluoromethyl)phenoxy)pyrido[2,3-d]pyrimidine-2,4(1H,3H)-dione]
3.25 µM	Cn1c(=O)n(CCCO)c(=O)c2c(Cc3ccc(Cl)cc3)c(Oc3cccnc3)cnc21 [Compound 14, 5-(4-chlorobenzyl)-3-(3-hydroxypropyl)-1-methyl-6-(pyridin-3-yloxy)pyrido[2,3-d]pyrimidine-2,4(1H,3H)-dione]
7.53 µM	Cn1c(=O)n(CCCO)c(=O)c2c(Cc3ccc(Cl)cc3)c(Oc3cncc(F)c3)cnc21 [Compound 15, 5-(4-chlorobenzyl)-6-((5-fluoropyridin-3-yl)oxy)-3-(3-hydroxypropyl)-1-methylpyrido[2,3-d]pyrimidine-2,4(1H,3H)-dione]
0.215 µM	CC(C)c1ccccc1-c1cnc2c(c1Cc1ccc(Cl)cc1)c(=O)n(CCCO)c(=O)n2C [Compound 38, 5-(4-chlorobenzyl)-3-(3-hydroxypropyl)-6-(2-isopropylphenyl)-1-methylpyrido[2,3-d]pyrimidine-2,4(1H,3H)-dione]
3.74 µM	Cn1c(=O)n(CCCO)c(=O)c2c(Cc3ccc(Cl)cc3)c(Oc3cncc(Cl)c3)cnc21 [Compound 16, 5-(4-chlorobenzyl)-6-((5-chloropyridin-3-yl)oxy)-3-(3-hydroxypropyl)-1-methylpyrido[2,3-d]pyrimidine-2,4(1H,3H)-dione]
1.29 µM	Cn1c(=O)n(CCCO)c(=O)c2c(Cc3ccc(Cl)cc3)c(Oc3cccc(Cl)c3)cnc21 [Compound 26, 5-(4-chlorobenzyl)-6-(3-chlorophenoxy)-3-(3-hydroxypropyl)-1-methylpyrido[2,3-d]pyrimidine-2,4(1H,3H)-dione]

Continued, compound first:

Compound	IC50
CC(C)CCc1c(Oc2cccc(C(F)(F)F)c2)cnc2c1c(=O)n(CCCO)c(=O)n2C [Compound 46, 3-(3-hydroxypropyl)-5-isopentyl-1-methyl-6-(3-(trifluoromethyl)phenoxy)pyrido[2,3-d]pyrimidine-2,4(1H,3H)-dione]	> 20 µM
CC(C)CCc1c(OC(C)C)cnc2c1c(=O)n(CCCO)c(=O)n2C [Compound 37, 3-(3-hydroxypropyl)-5-isopentyl-6-isopropoxy-1-methylpyrido[2,3-d]pyrimidine-2,4(1H,3H)-dione]	1.16 µM
Cn1c(=O)n(CCCO)c(=O)c2c(Cc3ccc(C(F)(F)F)nc3)c(Oc3cccc(OC(F)(F)F)c3)cnc21 [Compound 32, 3-(3-hydroxypropyl)-1-methyl-6-(3-(trifluoromethoxy)phenoxy)-5-((6-(trifluoromethyl)pyridin-3-yl)methyl)pyrido[2,3-d]pyrimidine-2,4(1H,3H)-dione]	0.35 µM
CC(C)CCc1c(Oc2cccc(OC(F)(F)F)c2)cnc2c1c(=O)n(CCCO)c(=O)n2C [Compound 49, 3-(3-hydroxypropyl)-5-isopentyl-1-methyl-6-(3-(trifluoromethoxy)phenoxy)pyrido[2,3-d]pyrimidine-2,4(1H,3H)-dione]	> 20 µM
Cn1c(=O)n(CCCO)c(=O)c2c(Cc3ccc(Cl)cc3)c(-c3cccc(F)c3)cnc21 [Compound 25, 5-(4-chlorobenzyl)-6-(3-fluorophenyl)-3-(3-hydroxypropyl)-1-methylpyrido[2,3-d]pyrimidine-2,4(1H,3H)-dione]	0.739 µM
Cn1c(=O)n(CCCO)c(=O)c2c(Cc3ccc(C(F)(F)F)nc3)c(Oc3cccc(C(F)(F)F)c3)cnc21 [Compound 24, 3-(3-hydroxypropyl)-1-methyl-6-(3-(trifluoromethyl)phenoxy)-5-((6-(trifluoromethyl)pyridin-3-yl)methyl)pyrido[2,3-d]pyrimidine-2,4(1H,3H)-dione]	1.34 µM
CC(C)CC(O)c1c(Oc2cccc(OC(F)(F)F)c2)cnc2c1c(=O)n(CCCO)c(=O)n2C (stereo not drawn) [Compound 44, 5-(1-hydroxy-3-methylbutyl)-3-(3-hydroxypropyl)-1-methyl-6-(3-(trifluoromethoxy)phenoxy)pyrido[2,3-d]pyrimidine-2,4(1H,3H)-dione]	3.45 µM
CC(C)c1ccccc1-c1cnc2c(c1C(O)c1ccc(Cl)cc1)c(=O)n(CCCO)c(=O)n2C (stereo not drawn) [Compound 20, 5-((4-chlorophenyl)(hydroxy)methyl)-3-(3-hydroxypropyl)-6-(2-isopropylphenyl)-1-methylpyrido[2,3-d]pyrimidine-2,4(1H,3H)-dione]	0.977 µM
